Measured values taken from ChEMBL document CHEMBL4834472 (J Med Chem, 2021).
The source made the active and inactive calls. The calls are words filed in the database; no cut-off is given here.

Experiments:
[1] = target: CDK2/Cyclin A1 (Homo sapiens, UniProt P24941); type: protein-complex assay
Description: Inhibition of CDK2/Cyclin A1 (unknown origin) at 1 uM using histone H1 as substrate preincubated for 20 mins followed by 33P-ATP addition and measured after 2 hrs by filter binding method

[2] = target: Receptor-type tyrosine-protein kinase FLT3 (Homo sapiens, UniProt P36888, ITD)
[3] = target: Cyclin-dependent kinase 1/cyclin B1 (Homo sapiens, UniProt P06493); assay: Inhibition of CDK1/cyclin B1 (unknown origin) in presence of [32P]gammaATP by image analyser; type: protein-complex assay
Sequence of Cyclin-dependent kinase 1/cyclin B1 (P06493 whole entry): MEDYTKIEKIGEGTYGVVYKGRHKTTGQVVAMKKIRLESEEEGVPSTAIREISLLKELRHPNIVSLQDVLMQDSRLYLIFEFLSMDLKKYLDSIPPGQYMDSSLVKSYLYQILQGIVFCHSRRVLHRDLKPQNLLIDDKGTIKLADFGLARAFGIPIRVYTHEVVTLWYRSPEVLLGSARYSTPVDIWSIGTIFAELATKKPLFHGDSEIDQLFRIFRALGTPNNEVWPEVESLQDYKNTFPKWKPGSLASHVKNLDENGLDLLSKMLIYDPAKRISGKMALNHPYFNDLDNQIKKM
Sequence of Cyclin-dependent kinase 1/cyclin B1 (P14635 whole entry, further chain): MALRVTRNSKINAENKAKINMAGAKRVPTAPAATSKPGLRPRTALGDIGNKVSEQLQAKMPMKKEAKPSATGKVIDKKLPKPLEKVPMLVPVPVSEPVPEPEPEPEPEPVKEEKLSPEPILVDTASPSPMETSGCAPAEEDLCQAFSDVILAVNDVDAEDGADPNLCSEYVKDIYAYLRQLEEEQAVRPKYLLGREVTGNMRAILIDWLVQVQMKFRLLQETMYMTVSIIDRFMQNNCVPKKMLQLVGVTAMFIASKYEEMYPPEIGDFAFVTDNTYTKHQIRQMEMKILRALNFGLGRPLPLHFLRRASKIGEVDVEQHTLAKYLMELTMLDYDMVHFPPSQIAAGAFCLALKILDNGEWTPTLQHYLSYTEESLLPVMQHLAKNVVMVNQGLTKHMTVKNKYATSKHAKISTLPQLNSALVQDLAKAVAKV

[4] = target: Cyclin-dependent kinase 2/cyclin E1 (Homo sapiens, UniProt P24941); assay: Inhibition of CDK2/cyclin E1 (unknown origin) in presence of [32P]gammaATP by image analyser; type: protein-complex assay
[5] = target: CDK2/Cyclin A2 (Homo sapiens, UniProt P24941); assay: Inhibition of CDK2/cyclin A2 (unknown origin) in presence of [32P]gammaATP by image analyser; type: protein-complex assay
[6] = target: Cyclin-dependent kinase 4/cyclin D1 (Homo sapiens, UniProt P11802); assay: Inhibition of CDK4/cyclin D1 (unknown origin) in presence of [32P]gammaATP by image analyser; type: protein-complex assay
Sequence of Cyclin-dependent kinase 4/cyclin D1 (P11802 whole entry): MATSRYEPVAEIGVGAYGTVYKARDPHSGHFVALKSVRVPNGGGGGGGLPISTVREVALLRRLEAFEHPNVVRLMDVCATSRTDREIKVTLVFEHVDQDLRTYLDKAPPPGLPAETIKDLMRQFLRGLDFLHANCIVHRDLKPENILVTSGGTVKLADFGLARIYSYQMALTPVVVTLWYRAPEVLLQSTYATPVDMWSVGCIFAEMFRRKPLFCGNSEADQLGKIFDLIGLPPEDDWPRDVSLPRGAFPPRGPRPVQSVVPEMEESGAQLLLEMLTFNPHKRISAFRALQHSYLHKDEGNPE
Sequence of Cyclin-dependent kinase 4/cyclin D1 (P24385 whole entry, further chain): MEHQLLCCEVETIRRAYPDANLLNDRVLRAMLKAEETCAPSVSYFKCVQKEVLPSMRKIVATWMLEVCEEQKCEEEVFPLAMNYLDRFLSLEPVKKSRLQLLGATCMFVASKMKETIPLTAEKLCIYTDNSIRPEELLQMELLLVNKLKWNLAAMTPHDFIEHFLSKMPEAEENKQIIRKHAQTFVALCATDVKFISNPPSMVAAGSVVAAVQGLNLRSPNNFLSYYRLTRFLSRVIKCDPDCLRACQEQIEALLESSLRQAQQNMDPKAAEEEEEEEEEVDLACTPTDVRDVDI

[7] = target: CDK9/cyclin T1 (Homo sapiens, UniProt P50750); assay: Inhibition of CDK9/cyclin T1 (unknown origin) in presence of [32P]gammaATP by image analyser; type: protein-complex assay
Sequence of CDK9/cyclin T1 (O60563 whole entry): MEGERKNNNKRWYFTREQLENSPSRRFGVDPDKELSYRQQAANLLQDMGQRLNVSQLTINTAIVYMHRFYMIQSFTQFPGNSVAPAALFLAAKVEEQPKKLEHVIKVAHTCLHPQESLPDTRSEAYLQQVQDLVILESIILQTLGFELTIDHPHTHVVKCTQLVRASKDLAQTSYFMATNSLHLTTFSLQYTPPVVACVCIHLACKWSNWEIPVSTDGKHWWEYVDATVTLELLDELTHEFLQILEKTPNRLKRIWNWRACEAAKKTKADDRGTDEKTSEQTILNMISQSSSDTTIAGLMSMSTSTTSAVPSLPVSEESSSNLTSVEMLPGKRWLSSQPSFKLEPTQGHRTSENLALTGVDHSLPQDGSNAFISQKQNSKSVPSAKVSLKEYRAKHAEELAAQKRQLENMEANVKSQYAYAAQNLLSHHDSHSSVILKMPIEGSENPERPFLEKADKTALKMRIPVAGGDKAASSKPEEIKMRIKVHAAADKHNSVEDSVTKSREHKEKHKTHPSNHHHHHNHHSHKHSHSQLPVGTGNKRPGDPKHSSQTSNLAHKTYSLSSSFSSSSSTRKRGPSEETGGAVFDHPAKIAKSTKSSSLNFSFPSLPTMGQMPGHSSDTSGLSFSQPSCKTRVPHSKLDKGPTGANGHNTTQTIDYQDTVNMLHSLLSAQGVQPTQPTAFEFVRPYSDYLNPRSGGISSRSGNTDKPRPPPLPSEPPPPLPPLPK
Sequence of CDK9/cyclin T1 (P50750 whole entry): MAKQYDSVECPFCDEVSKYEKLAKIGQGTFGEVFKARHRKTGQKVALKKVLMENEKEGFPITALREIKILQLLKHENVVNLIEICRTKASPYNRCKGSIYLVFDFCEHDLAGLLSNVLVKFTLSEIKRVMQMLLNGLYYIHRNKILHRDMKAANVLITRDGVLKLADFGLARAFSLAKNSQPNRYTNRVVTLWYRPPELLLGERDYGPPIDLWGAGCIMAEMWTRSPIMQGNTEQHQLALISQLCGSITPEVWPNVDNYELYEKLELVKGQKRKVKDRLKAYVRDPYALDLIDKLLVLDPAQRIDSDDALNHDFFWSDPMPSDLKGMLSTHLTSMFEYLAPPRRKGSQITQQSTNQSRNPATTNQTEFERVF

[8] = target: T1, Receptor-type tyrosine-protein kinase FLT3 (Homo sapiens, UniProt P36888); assay: Inhibition of wild type FLT3 (unknown origin) using AGLT peptide substrate in presence of [32P]gammaATP by image analyser
T1 sequence (P36888 whole entry): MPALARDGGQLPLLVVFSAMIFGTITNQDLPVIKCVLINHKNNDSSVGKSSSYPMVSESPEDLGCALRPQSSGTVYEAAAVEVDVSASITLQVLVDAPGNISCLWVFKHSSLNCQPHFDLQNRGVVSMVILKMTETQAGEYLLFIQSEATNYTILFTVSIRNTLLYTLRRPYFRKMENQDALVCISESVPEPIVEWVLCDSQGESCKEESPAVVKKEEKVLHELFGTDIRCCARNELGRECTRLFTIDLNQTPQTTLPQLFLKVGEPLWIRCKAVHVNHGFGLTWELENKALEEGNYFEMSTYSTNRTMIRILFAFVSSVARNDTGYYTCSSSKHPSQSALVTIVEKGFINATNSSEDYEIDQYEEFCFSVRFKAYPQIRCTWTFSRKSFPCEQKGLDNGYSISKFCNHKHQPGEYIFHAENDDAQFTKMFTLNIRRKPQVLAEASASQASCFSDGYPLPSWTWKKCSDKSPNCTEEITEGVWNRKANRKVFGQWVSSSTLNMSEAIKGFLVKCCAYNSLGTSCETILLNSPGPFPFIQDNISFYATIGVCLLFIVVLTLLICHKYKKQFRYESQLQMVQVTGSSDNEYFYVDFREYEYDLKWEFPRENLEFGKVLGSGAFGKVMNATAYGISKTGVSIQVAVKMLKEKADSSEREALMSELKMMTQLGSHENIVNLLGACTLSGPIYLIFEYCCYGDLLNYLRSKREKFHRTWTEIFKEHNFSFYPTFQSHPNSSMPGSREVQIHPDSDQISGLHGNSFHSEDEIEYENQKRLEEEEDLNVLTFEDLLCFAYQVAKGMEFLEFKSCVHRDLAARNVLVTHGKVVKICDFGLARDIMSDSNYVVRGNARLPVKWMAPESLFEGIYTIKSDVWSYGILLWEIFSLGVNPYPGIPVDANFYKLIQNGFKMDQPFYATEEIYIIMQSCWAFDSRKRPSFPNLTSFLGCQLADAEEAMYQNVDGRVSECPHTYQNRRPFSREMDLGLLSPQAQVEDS

[9] = test system: MOLM-13; assay: Antiproliferative activity against human MOLM-13 cells assessed as cell death measured after 72 hrs by resazurin dye based assay; type: functional; conditions: MOLM-13, 72 h
[10] = test system: MOLM-14; assay: Antiproliferative activity against human MOLM-14 cells assessed as cell death measured after 72 hrs by resazurin dye based assay; type: functional; conditions: MOLM-14, 72 h
[11] = test system: MOLM-14; assay: Antiproliferative activity against human MOLM-14 cells harboring D835Y mutant assessed as cell death measured after 72 hrs by resazurin dye based assay; type: functional; conditions: MOLM-14, 72 h
[12] = test system: MOLM-14; assay: Antiproliferative activity against human MOLM-14 cells harboring F691L mutant assessed as cell death measured after 72 hrs by resazurin dye based assay; type: functional; conditions: MOLM-14, 72 h
[13] = test system: SEM cells; assay: Antiproliferative activity against human SEM cells assessed as cell death measured after 72 hrs by resazurin dye based assay; type: functional
[14] = test system: CCRF-CEM; assay: Antiproliferative activity against human CCRF-CEM cells assessed as cell death measured after 72 hrs by resazurin dye based assay; type: functional
[15] = test system: THP-1; assay: Antiproliferative activity against human THP-1 cells assessed as cell death measured after 72 hrs by resazurin dye based assay; type: functional; conditions: THP-1, 72 h
[16] = test system: U-937; assay: Antiproliferative activity against human U-937 cells assessed as cell death measured after 72 hrs by resazurin dye based assay; type: functional; conditions: U-937, 72 h
[17] = test system: BaF3; assay: Antiproliferative activity against mouse BaF3 cells assessed as cell death measured after 72 hrs by resazurin dye based assay; type: functional; conditions: BaF3, 72 h
[18] = test system: BaF3; assay: Antiproliferative activity against mouse BaF3 cells harboring FLt3 ITD mutant assessed as cell death measured after 72 hrs by resazurin dye based assay; type: functional; conditions: BaF3, 72 h
[19] = test system: K562; assay: cells; conditions: Homo sapiens, K562, 72 h
Description: Antiproliferative activity against human K562 cells assessed as cell death measured after 72 hrs by resazurin dye based assay

[20] = test system: MV4-11; assay: cells; conditions: Homo sapiens, MV4-11, 72 h
Description: Antiproliferative activity against human MV4-11 cells assessed as cell death measured after 72 hrs by resazurin dye based assay

[21] = target: Receptor-type tyrosine-protein kinase FLT3 (Homo sapiens) (UniProt P36888); assay: Inhibition of FLT3 autophosphorylation in human MV4-11 cells at 20 to 100 nM incubated for 1 hrs by Western blot analysis; type: cell-based; conditions: dose 20-100 nM
[22] = target: Receptor-type tyrosine-protein kinase FLT3 (Homo sapiens) (UniProt P36888); assay: Inhibition of FLT3 in human MV4-11 cells assessed as STAT5 phosphorylation at Y694 at 20 to 100 nM incubated for 1 hrs by Western blot analysis; type: cell-based; conditions: dose 20-100 nM
[23] = target: Receptor-type tyrosine-protein kinase FLT3 (Homo sapiens) (UniProt P36888); assay: Inhibition of FLT3 in human MV4-11 cells assessed as ERK1/2 phosphorylation at 20 to 100 nM incubated for 1 hrs by Western blot analysis; type: cell-based; conditions: dose 20-100 nM
[24] = test system: MV4-11; assay: Induction of apoptosis in human MV4-11 cells assessed as caspase 3 activation using fluorescent substrate Ac-DEVD-AMC at 100 nM incubated for 24 hrs by Western blot analysis; type: functional, cell-based
[25] = test system: MV4-11; assay: Induction of apoptosis in human MV4-11 cells assessed as caspase 7 activation using fluorescent substrate Ac-DEVD-AMC at 100 nM incubated for 24 hrs by Western blot analysis; type: functional, cell-based
[26] = test system: MV4-11; assay: Induction of apoptosis in human MV4-11 cells assessed as increase in cleaved PARP1 level at 100 nM incubated for 24 hrs by Western blot analysis; type: functional, cell-based
[27] = test system: MV4-11; assay: Induction of apoptosis in human MV4-11 cells assessed as decrease in MCL1 level at 100 nM incubated for 24 hrs by Western blot analysis; type: functional, cell-based
[28] = test system: MV4-11; assay: Induction of apoptosis in human MV4-11 cells assessed as effect on Bcl2 level at 100 nM incubated for 24 hrs by Western blot analysis; type: functional, cell-based

In the case of Fc1cc2[nH]ncc2c2c3c(c(-c4cn[nH]c4)nc12)CCCC3, the IC50 [1] is reported as 39 nM, the IC50 [2] is reported as 43 nM and the IC50 [3] is reported as 119 nM. For the same molecule, the IC50 [4] was 55 nM, the IC50 [5] was 39 nM and the IC50 [6] was > 1000 nM. It also gave an IC50 [7] of 196 nM, an IC50 [8] of 21 nM and an IC50 [9] of 49 nM. The IC50 [10] was 79 nM, the IC50 [11] was 46 nM and the IC50 [12] was 50 nM. It also gave an IC50 [13] of 1050 nM, an IC50 [14] of 5.48 µM and an IC50 [15] of 1.9 µM. For the same molecule, the IC50 [16] was 3.17 µM, the IC50 [17] was 15.1 µM and the IC50 [18] was 814 nM. It also gave an IC50 [19] of 3.28 µM and an IC50 [20] of 22 nM.

Fc1cc2[nH]ncc2c2c3c(c(-c4c[nH]nc4C(F)(F)F)nc12)C1CCC3C1 (stereo unspecified) gave an IC50 [1] of 49 nM, an IC50 [2] of 16 nM and an IC50 [3] of 72 nM. The IC50 [4] was 31 nM, the IC50 [5] was 49 nM and the IC50 [6] was > 1000 nM. For the same molecule, the IC50 [7] was 980 nM, the IC50 [8] was 28 nM and the IC50 [9] was 6 nM. For the same molecule, the IC50 [10] was 24 nM, the IC50 [11] was 13 nM and the IC50 [12] was 65 nM. For the same molecule, the IC50 [13] was 150 nM, the IC50 [14] was 8.12 µM and the IC50 [15] was 3.15 µM. It also gave an IC50 [16] of 2.24 µM, an IC50 [17] of 5.82 µM and an IC50 [18] of 35 nM. For the same molecule, the inhibition [21] was “Active”, the inhibition [22] was “Active” and the inhibition [23] was “inactive”. For the same molecule, the Activity [24] was “Active”, the Activity [25] was “Active” and the Activity [26] was “Active”. For the same molecule, the Activity [27] was “Active”, the Activity [28] was “Active” and the IC50 [19] was 7.59 µM. It also gave an IC50 [20] of 49 nM.

OCc1n[nH]c2ccc3nc(-c4c[nH]nc4C(F)(F)F)c4c(c3c12)CCCC4 gave an IC50 [1] of 141 nM, an IC50 [2] of 3 nM and an IC50 [3] of 203 nM. For the same molecule, the IC50 [4] was 102 nM, the IC50 [5] was 141 nM and the IC50 [6] was > 1000 nM. The IC50 [7] was > 1000 nM, the IC50 [8] was 32 nM and the IC50 [9] was 18 nM. It also gave an IC50 [10] of 36 nM, an IC50 [11] of 16 nM and an IC50 [12] of 91 nM. The IC50 [13] was 437 nM, the IC50 [14] was 5.21 µM and the IC50 [15] was 16.9 µM. For the same molecule, the IC50 [16] was 4.82 µM, the IC50 [17] was 16.1 µM and the IC50 [18] was 124 nM. The inhibition [21] was “Active”, the inhibition [22] was “Active” and the inhibition [23] was “inactive”. The Activity [24] was “Active”, the Activity [25] was “Active” and the Activity [26] was “Active”. For the same molecule, the Activity [27] was “Active”, the Activity [28] was “Active” and the IC50 [19] was 9.72 µM. It also gave an IC50 [20] of 30 nM.
